{
  "source": "patent US20260272936A1",
  "about": "“TREATMENT OF CANCER WITH A PARG INHIBITOR” (858 Therapeutics, Inc., priority 2023, published 2026)",
  "assay_in_all_cases": "MMS-induced nuclear PAR accumulation, immunofluorescence imaging",
  "format_in_all_cases": "cell-based",
  "key": {"[1]": {"system": "HeLa cells", "conditions": "Homo sapiens, 50 μg/mL MMS, n=26, read-out: Geometric Mean EC50, PAR accumulation", "method": "(§1) The HeLa (Cat #CCL-2) and OVCAR-3 (Cat #HTB-161) human cancer cell lines were obtained from ATCC (Manassas, Virginia, USA) and the RMUG-S(Cat #IFO50320) and Kuramochi (Cat #JCRB0098) cell lines were obtained from the National Institutes of Biomedical Innovation, Health and Nutrition's Japanese Collection of Research Bioresources (Ibaraki City, Osaka, Japan).\n(§2) All cell lines were grown in an incubator at 37° C. in 5% CO2. HeLa cells were cultured in Dulbecco's Modified Medium (DMEM)+glutaMAX™ (Thermo Fisher Scientific, Waltham, MA, USA Cat #10566-016) containing 1% penicillin/streptomycin (pen/strep) (Thermo Fisher Scientific Cat #15070-063), and 10% fetal bovine serum (FBS) (Thermo Fisher Scientific Cat #A31605-02). Kuramochi cells were cultured in RPMI medium+glutaMAX™ (Thermo Fisher Scientific Cat #72400-047), 10% FBS, and 1% pen/strep. RMUG-S cells were cultured in Ham's F12 medium+glutaMAX™ (Thermo Fisher Scientific Cat #31765-035) containing 10% FBS, and 1% pen/strep. OVCAR-3 cells were cultured in RPMI medium+glutaMAX™ containing 20% FBS, 1% pen/strep, and 0.01 mg/mL bovine insulin (MilliporeSigma, Burlington, MA, USA Cat #10516-5ML).\n(§3) Compound 1 EC50 values for accumulation of PAR chains were determined using an immunofluorescence high-content imaging assay of PAR staining. Cells were harvested with trypsin (Thermo Fisher Scientific, Cat #25200-056) and plated in black-walled, clear bottom 96-well Corning Costar 3603 plates (VWR, Radnor, PA, USA Cat #29444-008) at 15,000 cells/well in 100 μL normal growth media. The cells were incubated overnight at 37° C., 5% CO2. The following day, a 1000× Compound 1 concentration curve was prepared by serial dilution of Compound 1 in 100% DMSO for twelve concentrations with the highest starting final concentration of 10 μM. The 1000× test compound curve was diluted 1:200 into growth media to prepare a 5× concentration curve in 0.5% DMSO/media before addition of 25 μL of compound or 0.5% DMSO/media alone to each well of the plate. The plate was mixed gently on a plate shaker and then preincubated at 37° C., 5% CO2 for 1 hour. A 2.25× stock of MMS (Sigma Cat #129925-5G) plus Compound 1 in media was prepared by diluting a 100 mg/mL stock of MMS prepared in 100% DMSO into growth media containing 1× Compound 1 compound. […] Nuclear PAR accumulation was evaluated by imaging the plates on an ImageXpress Pico automated cell imaging system (Molecular Devices, San Jose, CA, USA).\n(§4) Four fields for each well were acquired at 20× magnification resulting in at least 1,000 cells analyzed per well. Percent PAR positive cells were calculated using CellReporterXpress software (Molecular Devices, San Jose, CA, USA) using nuclei detection by DAPI image segmentation then setting a fluorescence intensity threshold for PAR. […]"}, "[2]": {"system": "Kuramochi cells", "conditions": "Homo sapiens, 50 μg/mL MMS, n=3, read-out: Geometric Mean EC50, PAR accumulation", "method": "as §1, §2, §3, §4"}, "[3]": {"system": "OVCAR-3 cells", "conditions": "Homo sapiens; OVCAR-3, 50 μg/mL MMS, n=3; read-out: Geometric Mean EC50, PAR accumulation", "method": "as §1, §2, §3, §4"}, "[4]": {"system": "RMUG-S cells", "conditions": "Homo sapiens, 50 μg/mL MMS, n=3, read-out: Geometric Mean EC50, PAR accumulation", "method": "as §1, §2, §3, §4"}},
  "data": [
    {"smiles": "[2H]C([2H])(c1cnn(C)c1)N1C(=O)c2cc(S(=O)(=O)NC3(C)CC3)ccc2N2C1=NC[C@H]2C", "note": "[Compound 1, (R)-1-methyl-4-((1-methyl-1H-pyrazol-4-yl)methyl-d2)-N-(1-methylcyclopropyl)-5-oxo-1,2,4,5-tetrahydroimidazo[1,2-a]quinazoline-7-sulfonamide]", "values": [
      {"measurement": "EC50", "setting": "[1]", "result": 14, "unit": "nM"},
      {"measurement": "EC50", "setting": "[2]", "result": 9, "unit": "nM"},
      {"measurement": "EC50", "setting": "[3]", "result": 20, "unit": "nM"},
      {"measurement": "EC50", "setting": "[4]", "result": 38, "unit": "nM"}
    ]}
  ]
}
